Source: patent publication US11332485B2, “Penicillin-binding protein inhibitors” (priority 2017, dated 2022)

How the values were obtained:
[1] = tested on: hyper-permeable E. coli 901C; experiment: Broth microdilution MIC assay; type: cell-based; details: Escherichia coli, read-out: E. coli 901C MIC
Experimental: (§1) To determine the ability of test compounds to potentiate the inhibition of the growth of bacterial strains, classic cell based broth microdilution MIC assays were employed. MIC assays are performed according to CLSI methods except where otherwise noted (CLSI, 2011 and CLSI, 2009). The reference strain S. aureus ATCC 29213 and the hyper-permeable E. coli 901C were used to determine the ability of the PBP compounds to inhibit bacterial growth. Briefly, cryo-preserved bacterial cultures of clinical strains are streaked for isolation on appropriate agar medium, in this case Mueller Hinton II agar. Following incubation to allow formation of colonies these plates are sealed with parafilm and stored refrigerated for up to two weeks. For preparation of assay inocula and to ensure low variability, at least 5 colonies are picked from the agar plates with an inoculating loop and aseptically transferred to a culture tube containing 3 mL of Mueller-Hinton Broth (supplemented with divalent cations to required levels based on Manufacturers' certification). The broth culture is grown for 3-5 hours at 37° C. with shaking at 200 rpm. Meanwhile, 2-fold serial dilutions of test compounds are conducted in a 96 well plate with a final volume of 75 μL per well at 2-fold the final desired concentration. After the dilution plates are set up the growing cultures are then diluted in a cuvette containing MH II broth and the optical density is measured at 600 nm. Inocula are diluted such that 75 μL of this culture in Mueller-Hinton Broth results in a starting bacterial concentration of 5×10^5 CFU/mL when added to the dilution plates. The plates are incubated 16-20 hours at 37° C. The MIC is read visually as the lowest concentration well with no bacterial growth.

S. aureus ATCC 29213 = experiment: Broth microdilution MIC assay; type: cell-based; details: Staphylococcus aureus, ATCC29213; broth microdilution, 16-20 hours at 37° C.; read-out: S. aureus 29213 MIC
Experimental: as §1

[2] = tested on: E. coli DH5α/pLBII-CTX-M15; experiment: Broth microdilution MIC assay, engineered strain producing CTX-M15; type: cell-based, Escherichia coli; details: Escherichia coli, read-out: E. coli DH5α/pLBII-CTX-M15 Microbiological Activity (MIC)
Experimental: as §1
To determine if test compounds were affected by CTX-M15, the most abundant extended spectrum β-lactamase in clinical settings worldwide, the inhibition of the growth of an engineered strain of Escherichia coli harboring CTX-M15 was tested. This strain was constructed by cloning the gene encoding CTX-M15 into the NdeI and BamHI restriction endonuclease sites of plasmid pLBII, placing the gene(s) under the control of the Lac promoter. The constructed expression plasmid for CTX-M15 was used to transform competent E. coli DH5a cells to make the engineered strain, including an empty pLBII vector control strain. The classic cell based broth microdilution MIC assay was employed as described above with the addition of control antibiotics, known to be degraded by β-lactamases (Ceftazidime, piperacillin and piperacillin+tazobactam).

| Compound | MIC [1] [µg/mL] | MIC (S. aureus ATCC 29213) [µg/mL] | MIC [2] [µg/mL] |
| --- | --- | --- | --- |
| CS(=O)(=O)N1CCC(C(=O)NC(C(=O)N[C@H]2Cc3cccc(C(=O)O)c3OB2O)c2csc(N)n2)CC1 (stereo partly drawn) [Example 70, (3R)-3-(2-(2-aminothiazol-4-yl)-2-(1-(methylsulfonyl)piperidine-4-carboxamido)acetamido)-2-hydroxy-3,4-dihydro-2H-benzo[e][1,2]oxaborinine-8-carboxylic acid] | < 64 | > 128 | – |
| CCN1CCN(C(=O)N[C@H](C(=O)N[C@H]2Cc3cccc(C(=O)O)c3OB2O)C(O)c2ccccc2)C(=O)C1=O (single isomer, unassigned) [Example 81] | > 128 | > 128 | – |
| Nc1nc(C(NC(=O)CCB(O)O)C(=O)N[C@H]2Cc3cccc(C(=O)O)c3OB2O)cs1 (stereo partly drawn) [Example 89, (3R)-3-(2-(2-aminothiazol-4-yl)-2-(3-boronopropanamido)acetamido)-2-hydroxy-3,4-dihydro-2H-benzo[e][1,2]oxaborinine-8-carboxylic acid] | > 128 | > 128 | 128 to 256 |
| Nc1nc(C(NC(=O)NCC(=O)O)C(=O)N[C@H]2Cc3cccc(C(=O)O)c3OB2O)cs1 (stereo partly drawn) [Example 90, (3R)-3-(2-(2-aminothiazol-4-yl)-2-(3-(carboxymethyl)ureido)acetamido)-2-hydroxy-3,4-dihydro-2H-benzo[e][1,2]oxaborinine-8-carboxylic acid] | < 64 | > 128 | 128 to 256 |
| NCC1CCN(C(=O)NC(C(=O)N[C@H]2Cc3cccc(C(=O)O)c3OB2O)c2csc(N)n2)CC1 (stereo partly drawn) [Example 75, (3R)-3-(2-(4-(aminomethyl)piperidine-1-carboxamido)-2-(2-aminothiazol-4-yl)acetamido)-2-hydroxy-3,4-dihydro-2H-benzo[e][1,2]oxaborinine-8-carboxylic acid] | < 64 | > 128 | – |
| CC(=O)N1CCN(C(=O)NC(C(=O)N[C@H]2Cc3cccc(C(=O)O)c3OB2O)c2csc(N)n2)C1=O (stereo partly drawn) [Example 71, (3R)-3-(2-(3-acetyl-2-oxoimidazolidine-1-carboxamido)-2-(2-aminothiazol-4-yl)acetamido)-2-hydroxy-3,4-dihydro-2H-benzo[e][1,2]oxaborinine-8-carboxylic acid] | < 64 | 64 to 128 | – |
| Nc1nc(C(NC(=O)NCCC(=O)O)C(=O)N[C@H]2Cc3cccc(C(=O)O)c3OB2O)cs1 (stereo partly drawn) [Example 87, (3R)-3-(2-(2-aminothiazol-4-yl)-2-(3-(2-carboxyethyl)ureido)acetamido)-2-hydroxy-3,4-dihydro-2H-benzo[e][1,2]oxaborinine-8-carboxylic acid] | 64 to 128 | > 128 | 128 to 256 |
| Nc1nc(C(NCC(=O)O)C(=O)N[C@H]2Cc3cccc(C(=O)O)c3OB2O)cs1 (stereo partly drawn) [Example 10, (3R)-3-(2-(2-aminothiazol-4-yl)-2-((carboxymethyl)amino)acetamido)-2-hydroxy-3,4-dihydro-2H-benzo[e][1,2]oxaborinine-8-carboxylic acid] | – | > 128 | – |
| CCN1CCN(C(=O)N[C@@H](C(=O)N[C@H]2Cc3cccc(C(=O)O)c3OB2O)C(O)c2ccccc2)C(=O)C1=O (single isomer, unassigned) [Example 80] | < 64 | 64 to 128 | – |
| COC(=O)CCNC(=O)NC(C(=O)N[C@H]1Cc2cccc(C(=O)O)c2OB1O)c1csc(N)n1 (stereo partly drawn) [Example 88, (3R)-3-(2-(2-aminothiazol-4-yl)-2-(3-(3-methoxy-3-oxopropyl)ureido)acetamido)-2-hydroxy-3,4-dihydro-2H-benzo[e][1,2]oxaborinine-8-carboxylic acid] | < 64 | > 128 | 128 to 256 |
| NCC1CCCN(C(=O)NC(C(=O)N[C@H]2Cc3cccc(C(=O)O)c3OB2O)c2csc(N)n2)C1 (stereo partly drawn) [Example 76, (3R)-3-(2-(3-(aminomethyl)piperidine-1-carboxamido)-2-(2-aminothiazol-4-yl)acetamido)-2-hydroxy-3,4-dihydro-2H-benzo[e][1,2]oxaborinine-8-carboxylic acid] | 64 to 128 | > 128 | – |
